Test results: ChEMBL document CHEMBL1201862, “PubChem BioAssay data set” (2004)
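Five compound concentrations were applied to cells in 96-well plates for 48 hours; endpoints were derived by simple linear interpolation of the resulting dose-response curve. The concentration for 50% growth inhibition is given as GI50.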 The source made the active and inactive calls. Cut-off read from the data, not from the text of the source: active = GI50 up to about 1.1 µM and inactive = higher.

How the values were obtained:
Assay in all cases: NCI-60 cell line screen, 48 h
[1] = test system: 786-0
[2] = test system: A498
[3] = test system: A549
[4] = test system: ACHN
[5] = test system: BT-549
[6] = test system: CAKI-1
[7] = test system: CCRF-CEM
[8] = test system: COLO 205
[9] = test system: DU-145
[10] = test system: EKVX
[11] = test system: HCT-116
[12] = test system: HCT-15
[13] = test system: HL-60
[14] = test system: HOP-62
[15] = test system: HT-29
[16] = test system: Hs-578T
[17] = test system: IGROV-1
[18] = test system: K562
[19] = test system: KM12
[20] = test system: LOX IMVI
[21] = test system: M14
[22] = test system: MCF7
[23] = test system: MDA-MB-231
[24] = test system: MDA-MB-435
[25] = test system: MDA-N
[26] = test system: MOLT-4
[27] = test system: NCI-H226
[28] = test system: NCI-H23
[29] = test system: NCI-H460
[30] = test system: NCI-H522
[31] = test system: NCI/ADR-RES
[32] = test system: OVCAR-3
[33] = test system: OVCAR-4
[34] = test system: OVCAR-5
[35] = test system: OVCAR-8
[36] = test system: PC-3
[37] = test system: RPMI-8226
[38] = test system: SF-268
[39] = test system: SF-295
[40] = test system: SF-539
[41] = test system: SK-MEL-28
[42] = test system: SK-MEL-2
[43] = test system: SK-MEL-5
[44] = test system: SK-OV-3
[45] = test system: SN12C
[46] = test system: SNB-19
[47] = test system: SNB-75
[48] = test system: SR
[49] = test system: SW-620
[50] = test system: T47D
[51] = test system: TK-10
[52] = test system: U-251
[53] = test system: UACC-257
[54] = test system: UACC-62
[55] = test system: UO-31
[56] = test system: HCC 2998
[57] = test system: HOP-92
[58] = test system: Malme-3M
[59] = test system: RXF 393

## CCCCCCSc1nc(COC(=O)NC)c(COC(=O)NC)n1C
[1]
  GI50: > 100 µM (inactive)
[2]
  GI50: > 100 µM (inactive)
[3]
  GI50: > 100 µM (inactive)
[4]
  GI50: > 100 µM (inactive)
[5]
  GI50: > 100 µM (inactive)
[6]
  GI50: > 100 µM (inactive)
[7]
  GI50: > 100 µM (inactive)
[8]
  GI50: > 100 µM (inactive)
[9]
  GI50: > 100 µM (inactive)
[10]
  GI50: > 100 µM (inactive)
[11]
  GI50: > 100 µM (inactive)
[12]
  GI50: > 100 µM
[13]
  GI50: > 100 µM (inactive)
[14]
  GI50: > 100 µM (inactive)
[15]
  GI50: > 100 µM (inactive)
[16]
  GI50: > 100 µM (inactive)
[17]
  GI50: > 100 µM (inactive)
[18]
  GI50: > 100 µM (inactive)
[19]
  GI50: > 100 µM (inactive)
[20]
  GI50: > 100 µM (inactive)
[21]
  GI50: > 100 µM (inactive)
[22]
  GI50: > 100 µM (inactive)
[23]
  GI50: > 100 µM (inactive)
[24]
  GI50: > 100 µM (inactive)
[25]
  GI50: > 100 µM (inactive)
[26]
  GI50: > 100 µM (inactive)
[27]
  GI50: > 100 µM (inactive)
[28]
  GI50: > 100 µM (inactive)
[29]
  GI50: > 100 µM (inactive)
[30]
  GI50: > 100 µM (inactive)
[31]
  GI50: > 100 µM (inactive)
[32]
  GI50: > 100 µM (inactive)
[33]
  GI50: > 100 µM (inactive)
[34]
  GI50: > 100 µM (inactive)
[35]
  GI50: > 100 µM (inactive)
[36]
  GI50: > 100 µM (inactive)
[37]
  GI50: > 100 µM (inactive)
[38]
  GI50: > 100 µM (inactive)
[39]
  GI50: > 100 µM (inactive)
[40]
  GI50: > 100 µM (inactive)
[41]
  GI50: > 100 µM (inactive)
[42]
  GI50: > 100 µM (inactive)
[43]
  GI50: > 100 µM (inactive)
[44]
  GI50: > 100 µM (inactive)
[45]
  GI50: > 100 µM (inactive)
[46]
  GI50: > 100 µM (inactive)
[47]
  GI50: > 100 µM (inactive)
[48]
  GI50: > 100 µM (inactive)
[49]
  GI50: > 100 µM (inactive)
[50]
  GI50: > 100 µM (inactive)
[51]
  GI50: > 100 µM (inactive)
[52]
  GI50: > 100 µM (inactive)
[53]
  GI50: > 100 µM (inactive)
[54]
  GI50: > 100 µM (inactive)
[55]
  GI50: > 100 µM (inactive)

## CC(C)COP(=O)(OCC(C)C)C(NS(=O)(=O)c1ccccc1)(C(F)(F)F)C(F)(F)F
[1]
  GI50: 7.53 µM (inactive)
[3]
  GI50: 3.82 µM (inactive)
[4]
  GI50: 2.99 µM (inactive)
[5]
  GI50: 4.03 µM (inactive)
[6]
  GI50: 5.52 µM (inactive)
[7]
  GI50: 3.36 µM (inactive)
[8]
  GI50: 1.94 µM (inactive)
[9]
  GI50: 5.71 µM (inactive)
[10]
  GI50: 4.91 µM (inactive)
[56]
  GI50: 5.13 µM (inactive)
[11]
  GI50: 5.24 µM (inactive)
[12]
  GI50: 3.94 µM
[13]
  GI50: 1.22 µM (inactive)
[14]
  GI50: 11.3 µM (inactive)
[57]
  GI50: 2.2 µM (inactive)
[15]
  GI50: 4.44 µM (inactive)
[16]
  GI50: 9.33 µM (inactive)
[17]
  GI50: 4.41 µM (inactive)
[18]
  GI50: 4.8 µM (inactive)
[19]
  GI50: 3.93 µM (inactive)
[20]
  GI50: 3.57 µM (inactive)
[21]
  GI50: 12.8 µM (inactive)
[22]
  GI50: 7.57 µM (inactive)
[23]
  GI50: 2.04 µM (inactive)
[24]
  GI50: 4.45 µM (inactive)
[25]
  GI50: 5.51 µM (inactive)
[26]
  GI50: 1.41 µM (inactive)
[58]
  GI50: 11.9 µM (inactive)
[27]
  GI50: 16.9 µM (inactive)
[28]
  GI50: 3.81 µM (inactive)
[30]
  GI50: 4.05 µM (inactive)
[31]
  GI50: 4.13 µM (inactive)
[32]
  GI50: 4.82 µM (inactive)
[33]
  GI50: 3.4 µM (inactive)
[34]
  GI50: 14.2 µM (inactive)
[35]
  GI50: 6.46 µM (inactive)
[36]
  GI50: 3.68 µM (inactive)
[37]
  GI50: 1.66 µM (inactive)
[59]
  GI50: 3.96 µM (inactive)
[38]
  GI50: 7.21 µM (inactive)
[39]
  GI50: 5.6 µM (inactive)
[40]
  GI50: 8.34 µM (inactive)
[41]
  GI50: 13.6 µM (inactive)
[42]
  GI50: 3.4 µM (inactive)
[43]
  GI50: 5.12 µM (inactive)
[44]
  GI50: 5.47 µM (inactive)
[45]
  GI50: 3.22 µM (inactive)
[46]
  GI50: 10.2 µM (inactive)
[47]
  GI50: 2.91 µM (inactive)
[48]
  GI50: 2.08 µM (inactive)
[49]
  GI50: 4.15 µM (inactive)
[50]
  GI50: 3.38 µM (inactive)
[51]
  GI50: 3.68 µM (inactive)
[52]
  GI50: 3.77 µM (inactive)
[53]
  GI50: 4.24 µM (inactive)
[54]
  GI50: 4.81 µM (inactive)
[55]
  GI50: 2.22 µM (inactive)
